{
  "source": "paper PMC3939009",
  "about": "“Thrombin inhibitory activity of some polyphenolic compounds” (Medicinal Chemistry Research, 2013)",
  "key": {"human thrombin [1]": {"target": "T1, human thrombin (Homo sapiens, UniProt P00734)", "experiment": "Thrombin-induced fibrinogen polymerization", "assay_type": "biochemical", "design": "Thrombin, also known as an active plasma coagulation factor II; purchased Sigma-Aldrich Chemical Co. (St. Louis, MO, USA) T7009", "details": "thrombin preincubated with compound", "protocol": "In these preparations, to nine volumes of thrombin one volume of polyphenolic compounds was added (final thrombin concentration was 15.8 nM). All tested compounds were dissolved in 50 % DMSO to the initial concentration of 10 mM; other solutions of compounds were also prepared in 50 % DMSO (prepared in 50 mM TBS, pH 7.4). […] Polymerization of fibrin was monitored at 595 nm using a 96-well microtiter plate reader. To each reaction well of the microtiter plate, 100 μl of fibrinogen (3 mg/ml) in 50 mM TBS and 5 mM CaCl2, pH 7.4, were added. […] The maximal velocity of the polymerization process (V max, Δm OD/min) for each absorbance curve was determined (Nowak et al., [2007])."}, "human thrombin [2]": {"target": "T1, human thrombin", "experiment": "Analysis of thrombin inhibition parameters (Lineweaver–Burk curves)", "assay_type": "biochemical", "design": "Thrombin, also known as an active plasma coagulation factor II; purchased Sigma-Aldrich Chemical Co. (St. Louis, MO, USA) T7009", "protocol": "Absorbance was monitored every 12 s for 10 min in a 96-well microplate reader. The velocity of reaction was expressed as the increase in product (pNA) over time (∆ μmol/min) using a computer program Mikcroplate Manager® 8 and the extinction coefficient of p-nitroaniline. […] Then, the Lineweaver–Burk ([1934]) curves for thrombin in the presence and in the absence of polyphenol compounds were plotted. The Lineweaver–Burk equation, which is a transformation of the Michaelis–Menten model, looks as follows: 1/V=Km/Vmax·1/[S]+1/Vmax"}},
  "data": [
    {"smiles": "O=c1c(O)c(-c2ccc(O)c(O)c2)oc2cc(O)cc(O)c12", "note": "[Quercetin, quercetin]", "values": [
      {"measurement": "Effect on thrombin ability to induce fibrinogen polymerization", "setting": "human thrombin [1]; 10 min 37 °C", "result": "inhibition of thrombin ability to induce fibrinogen polymerization"},
      {"measurement": "Concentration causing total inhibition of thrombin activity (fibrin polymerization)", "setting": "human thrombin [1]; Vmax of fibrinogen polymerization at 595 nm", "result": 50, "unit": "µM"},
      {"measurement": "k cat", "setting": "human thrombin [2]; compound at IC50 concentration, k cat = V max/E 0, control 29.1", "result": 27.8, "unit": "s⁻¹"},
      {"measurement": "Type of inhibition", "setting": "human thrombin [2]; from Lineweaver–Burk curves", "result": "competitive inhibitors"},
      {"measurement": "V max of chromogenic substrate hydrolysis by thrombin", "setting": "human thrombin [2]; thrombin incubated with compound at IC50 concentration, control 30.7", "result": "29.4 10^−6 mol/min"},
      {"measurement": "K m of chromogenic substrate hydrolysis by thrombin", "setting": "human thrombin [2]; thrombin incubated with compound at IC50 concentration, control 158.7", "result": "633.8 10^−6 M"}
    ]}
  ]
}
